Measured values taken from ChEMBL document CHEMBL3745649, “Structure-activity relationship study of anticancer thymidine-quinoxaline conjugates under the low radiance of long wavelength ultraviolet light for photodynamic therapy” (Eur J Med Chem, 2016).
Activity calls are given as the source filed them. The calls are words filed in the database; no cut-off is given here.

How the values were obtained:
[1] = Cytotoxicity against human Bel7402 cells assessed as viable cells at 50 uM; type: functional; settings: Bel-7402, read-out: Activity
[2] = Cytotoxicity against human PANC1 cells assessed as viable cells at 50 uM; type: functional; settings: PANC-1, read-out: Activity
[3] = Dark toxicity against human PANC1 cells assessed as cell viability after 53 hrs by CCK8 assay in absence of UVA-1 irradiation; type: cell-based, PANC-1
[4] = Photocytotoxicity against human Bel7402 cells assessed as cell viability preincubated for 5 hrs followed by UVA-1 irradiation at 0.85 mW/cm'2 for 20 mins measured after 48 hrs by CCK8 assay; type: functional, cell-based; settings: Bel-7402, light or radiation study
[5] = Photocytotoxicity against human PANC1 cells assessed as cell viability preincubated for 5 hrs followed by UVA-1 irradiation at 0.85 mW/cm'2 for 20 mins measured after 48 hrs by CCK8 assay; type: functional, cell-based; settings: PANC-1, light or radiation study
[6] = Dark toxicity against human Bel7402 cells assessed as cell viability after 53 hrs by CCK8 assay in absence of UVA-1 irradiation; type: cell-based, Bel-7402
H22 = assay: Cytotoxicity against […] cells assessed as cell viability after 72 hrs by MTT assay; type: functional, cell-based; settings: Mus musculus, H22, 72 h
[7] = Cytotoxicity against human Hep3B cells assessed as cell viability after 72 hrs by MTT assay; type: functional, cell-based, Hep 3B2
HepG2 = assay: Cytotoxicity against human HepG2 cells assessed as cell viability after 72 hrs by MTT assay; type: functional, cell-based; settings: HepG2, 72 h
C6 = assay: Cytotoxicity against rat C6 cells assessed as cell viability after 72 hrs by MTT assay; type: functional, cell-based; settings: C6, 72 h
PANC-1 [8] = assay: Antioxidant activity in human PANC1 cells assessed as reduction of H2O2-induced reactive oxygen stress level at 5 uM after 15 mins by DCFH-DA based fluorescence assay; type: functional, cell-based
PANC-1 [9] = assay: Photocytotoxicity against human PANC1 cells assessed as production of reactive oxygen stress at 5 uM preincubated for 5 hrs followed by UVA-1 irradiation at 0.85 mW/cm'2 for 20 mins measured for 10 mins by DCFH-DA based fluorescence microscopic analysis; type: functional, cell-based
MCF7 = assay: Cytotoxicity against human MCF7 cells assessed as cell viability after 72 hrs by MTT assay; type: functional, cell-based; settings: MCF7, 72 h
Bel-7402 = assay: Photocytotoxicity against human Bel7402 cells assessed as production of reactive oxygen stress at 5 uM preincubated for 5 hrs followed by UVA-1 irradiation at 0.85 mW/cm'2 for 20 mins measured for 10 mins by DCFH-DA based fluorescence microscopic analysis; type: functional, cell-based
PANC-1 [10] = assay: Antioxidant activity in human PANC1 cells assessed as reduction of reactive oxygen stress level at 5 uM after 15 mins by DCFH-DA based fluorescence assay in absence of H2O2; type: functional, cell-based
[11] = Photocytotoxicity against human Bel7402 cells assessed as cell viability preincubated for 5 hrs with cells followed by UVA-1 irradiation at 3.0 mW/cm'2 for 20 mins measured after 48 hrs by CCK8 assay; type: functional, cell-based; settings: Bel-7402, light or radiation study
[12] = Photocytotoxicity against human PANC1 cells assessed as cell viability preincubated for 5 hrs with cells followed by UVA-1 irradiation at 3.0 mW/cm'2 for 20 mins measured after 48 hrs by CCK8 assay; type: functional, cell-based; settings: PANC-1, light or radiation study

## Nc1ccn([C@@H]2O[C@H](CO)[C@@H](O)C2(F)F)c(=O)n1 [GEMCITABINE]
[1]
  viability at 50 µM: < 20%
[2]
  viability at 50 µM: < 20%

## Cc1cn([C@H]2C[C@H](n3cc(CNC(=O)CCCCCOc4ccc5c(c4)-c4nc6cc(Br)c(Br)cc6nc4[C@@H]4C(C)(C)CCC[C@]54C)nn3)[C@@H](CO)O2)c(=O)[nH]c1=O
[3]
  EC50 at 53 h: ≥ 50 µM
[4]
  EC50: 2.1 µM
[5]
  EC50: 5.8 µM
[6]
  EC50 at 53 h: > 20 µM

## Cc1cn([C@H]2C[C@H](n3cc(CNC(=O)CCCCCOc4ccc5c(c4)C(=O)C(=O)[C@@H]4C(C)(C)CCC[C@]54C)nn3)[C@@H](CO)O2)c(=O)[nH]c1=O
[3]
  EC50 at 53 h: > 50 µM
[4]
  EC50: > 20 µM
[5]
  EC50: > 20 µM
[6]
  EC50 at 53 h: > 50 µM

## Cc1cn([C@H]2C[C@H](n3cc(CNC(=O)CCCCCOc4ccc5c(c4)-c4nc6cc(F)ccc6nc4[C@@H]4C(C)(C)CCC[C@]54C)nn3)[C@@H](CO)O2)c(=O)[nH]c1=O
[3]
  EC50 at 53 h: 20 µM
[4]
  EC50: 4 µM
[5]
  EC50: 7 µM
[6]
  EC50 at 53 h: 10 µM

## Cc1cn([C@H]2C[C@H](n3cc(CNC(=O)CCCCCOc4ccc5c(c4)-c4nc6ccccc6nc4[C@@H]4C(C)(C)CCC[C@]54C)nn3)[C@@H](CO)O2)c(=O)[nH]c1=O
[3]
  EC50 at 53 h: ≥ 50 µM
H22
  EC50: 6 µM
[4]
  EC50: 4.2 µM
[5]
  EC50: 9.8 µM
[6]
  EC50 at 53 h: 10 µM
[7]
  EC50: 6 µM
HepG2
  EC50: 6 µM
C6
  EC50: 6 µM
PANC-1 [8]
  Activity: Active
PANC-1 [9]
  Activity: Active
MCF7
  EC50: 6 µM
Bel-7402
  Activity: Active

## Cc1cn([C@H]2C[C@H](n3cc(CNC(=O)CCCCCCCOc4ccc5c(c4)-c4nc6ccccc6nc4[C@H]4C(C)(C)CCC[C@]54C)nn3)[C@@H](CO)O2)c(=O)[nH]c1=O
[3]
  EC50 at 53 h: > 50 µM
[4]
  EC50: 5.6 µM
[5]
  EC50: 8.1 µM
[6]
  EC50 at 53 h: 10 µM

## Cc1cn([C@H]2C[C@H](n3cc(CCCC(=O)Nc4cc5ccc6cccc7ccc(c4)c5c67)nn3)[C@@H](CO)O2)c(=O)[nH]c1=O
[3]
  EC50 at 53 h: > 50 µM
[4]
  EC50: > 20 µM
[5]
  EC50: > 20 µM
[6]
  EC50 at 53 h: > 50 µM

## [N-]=[N+]=N[C@@H]1O[C@H](CO)[C@H](O)[C@H](O)[C@H]1O
PANC-1 [8]
  Activity: Active

## Cc1cn([C@H]2C[C@H](n3cc(CNC(=O)CCCOc4ccc5c(c4)-c4nc6ccccc6nc4[C@@H]4C(C)(C)CCC[C@]54C)nn3)[C@@H](CO)O2)c(=O)[nH]c1=O
[3]
  EC50 at 53 h: 20 µM
[4]
  EC50: 10.9 µM
[5]
  EC50: > 10 µM
[6]
  EC50 at 53 h: > 20 µM

## Cc1cn([C@H]2C[C@H](n3cc(CNC(=O)CCCCCOc4ccc5c(c4)-c4nc6ccc(F)cc6nc4[C@@H]4C(C)(C)CCC[C@]54C)nn3)[C@@H](CO)O2)c(=O)[nH]c1=O
[3]
  EC50 at 53 h: ≥ 50 µM
[4]
  EC50: 7.4 µM
[5]
  EC50: 13.5 µM
[6]
  EC50 at 53 h: 10 µM

## Cc1cn([C@H]2C[C@H](n3cc(CNC(=O)COc4ccc5c(c4)-c4nc6ccccc6nc4[C@@H]4C(C)(C)CCC[C@]54C)nn3)[C@@H](CO)O2)c(=O)[nH]c1=O
[3]
  EC50 at 53 h: 20 µM
[4]
  EC50: 12.5 µM
[5]
  EC50: > 20 µM
[6]
  EC50 at 53 h: > 20 µM

## CC1(C)CCC[C@]2(C)c3ccc(OCCCCCC(=O)NCc4cn([C@@H]5O[C@H](CO)[C@H](O)[C@H](O)[C@H]5O)nn4)cc3-c3nc4ccccc4nc3[C@H]12
PANC-1 [10]
  Activity: Active
[3]
  EC50 at 53 h: > 50 µM
[4]
  EC50: > 20 µM
[5]
  EC50: > 20 µM
[6]
  EC50 at 53 h: > 50 µM
PANC-1 [8]
  Activity: Active
PANC-1 [9]
  Activity: inactive
Bel-7402
  Activity: inactive

## CCN(CC)CCNC(=O)c1c(C)[nH]c(/C=C2\C(=O)Nc3ccc(F)cc32)c1C [SUNITINIB]
[11]
  EC50: 11 µM
[12]
  EC50: 13 µM

## Cc1cn([C@H]2C[C@H](n3cc(CNC(=O)CCCCCOc4ccc5c(c4)-c4nc6ccccc6nc4[C@H]4C(C)(C)CCC[C@]54C)nn3)[C@@H](CO)O2)c(=O)[nH]c1=O
[3]
  EC50 at 53 h: > 50 µM
[4]
  EC50: 5.1 µM
[5]
  EC50: 11.3 µM
[6]
  EC50 at 53 h: > 20 µM

## Cc1cn([C@H]2C[C@H](n3cc(CNC(=O)CCCCCCCOc4ccc5c(c4)-c4nc6ccccc6nc4[C@@H]4C(C)(C)CCC[C@]54C)nn3)[C@@H](CO)O2)c(=O)[nH]c1=O
[3]
  EC50 at 53 h: ≥ 50 µM
[4]
  EC50: 4 µM
[5]
  EC50: 5.7 µM
[6]
  EC50 at 53 h: 10 µM
